Key:
[1] = system: K562 cells; assay: Erythroid differentiation assay in K562 cells (hemin; hemoglobin accumulation, western blot); type: cell-based, human
Protocol: FIG. 1. ZAKα/P38 signaling pathway is activated in K562 after erythroid differentiation and its inhibition facilitates terminal erythroid differentiation. K562 cells were pre-treated with 0.1 μM nilotinib (Nil) (A, C, D), 1 μM anisomycin (B) and/or the indicated concentrations of the […] CX-5461 for 24 h, and then differentiated with 50 μM hemin for another 24 h. Hemoglobin accumulation (A, B, D) and NLRP1, phosphorylated P38, GATA1, ZAKα and ACTB (A-C) amounts were then evaluated by western blot. Immunoblots are representative of 3 independent experiments. #1, ACTB; #2, GATA1.
FIG. 2. The ZAKα/P38 signaling pathways is activated in K562 after erythroid differentiation. K562 cells were pre-treated with 0.1 μM nilotinib for 24 h and then differentiated with 50 μM hemin for the indicated times. The amounts of NLRP1, GATA1, phosphorylated P38, total ZAKα, phosphorylated ZAKα (Phos-tag) and ACTB were then evaluated by western blot.
(§1) FIG. 10. Imatinib and dasatinib promote erythropoiesis in human and zebrafish. (A) K562 cells were pretreated with the indicated concentrations of nilotinib, imatinib or dasatinib for 24 h and then differentiated with 50 μM hemin for 24 h. The amounts of NLRP1, GATA1, phosphorylated P38, total ZAKα and ACTB were then evaluated by western blot. (B) Zebrafish larvae were treated from 1 to 2 dpf with the indicated concentrations of nilotinib, imatinib or dasatinib. Representative images and number of neutrophils in larvae of 2 dpf treated by bath immersion with the indicated concentrations of imatinib and dasatinib. Each dot represents one individual and the mean±SEM for each group is also shown. P values were calculated by one-way ANOVA and Tukey's multiple range test. n.s., non-significant. ***P<0.001; ****P<0.0001.
(§2) FIG. 11. Ponatinib and bosutinib promote erythropoiesis in human and zebrafish. (A) K562 cells were pretreated with the indicated concentrations of nilotinib, ponatinib and bosutinib for 24 h and then differentiated with 50 μM hemin for the indicated times. The amounts of NLRP1, total ZAKα, GATA1, phosphorylated P38 and ACTB were then evaluated by western blot. (B) Number of neutrophils in larvae of 2 dpf treated by bath immersion with the indicated concentrations of ponatinib and bosutinib. Each dot represents one individual and the mean±SEM for each group is also shown. P values were calculated by one-way ANOVA and Tukey's multiple range test. n.s., non-significant, *P<0.05. **P<0.01. ***P<0.001.
K562 cells (CRL-3343; American Type Culture Collection) were maintained in RPMI culture medium supplemented with 10% fetal calf serum (FCS), 2 mM Glutamine, and 1% penicillin-streptomycin (Life Technologies). Cells were maintained and subcultured before confluence every 72 h. For differentiation, cells were treated with 50 μM hemin (#16009-13-5, Sigma-Aldrich) in the presence of 0.1% DMSO alone or with the caspase-1 inhibitor VX-765 (100 μM), the tyrosine kinase inhibitor nilotinib (0.1 μM), the RNA polymerase I inhibitor CX-5461 (200 nM, 1 μM and 10 μM) (all from MedChemExpress). Cells were collected at different time points (0, 24, 48 hours post-hemin addition), centrifuged, washed twice with PBS, and stored at −80° C. for further analysis.
Cells were lysed in 50 mM Tris-HCl (pH 7.5), 150 mM NaCl, 1% (w/v) NP-40 and fresh protease inhibitor (1/20, #P8340, Sigma-Aldrich). Protein quantification was performed with the BCA kit using BSA as standard. Cell lysates ([…]) in SDS sample buffer were subjected to electrophoresis on a polyacrylamide gel and transferred to nitrocellulose membranes. The membranes were incubated for 1 h with TTBS containing 5% (w/v) skimmed dried milk powder or 2% (w/v) BSA. The membranes were immunoblotted in the same buffer 16 h at 4° C. with the different primary antibodies diluted 1/1000. The blots were then washed with TTBS and incubated for 1 h at room temperature with secondary HRP-conjugated antibodies diluted 2,500-fold in 5% (w/v) skimmed milk in TTBS. […]

[2] = system: zebrafish larvae; assay: Chemical treatment of zebrafish larvae by bath immersion; counting of neutrophils and erythrocytes; type: in vivo, Zebrafish (Danio rerio H.)
Protocol: FIG. 3. ZAKα regulates hematopoiesis in zebrafish through the Nlrp1 inflammasome. Number of neutrophils (B, D, H), erythrocytes (F) and macrophages (J), and caspase-1 activity (K) in 2 dpf larvae either treated from 1 to 2 dpf by bath immersion with 1 μM nilotinib and/or 100 μM anisomycin (A-D) or obtained by injecting one-cell stage embryos with standard or zaka crRNAs/Cas9 complexes (E-K). Representative images of neutrophils (A, C, G), erythrocytes (E) and macrophages (I) are also shown. Each dot represents one individual and the mean±SEM for each group is also shown. P values were calculated using one-way ANOVA and Tukey's multiple range test (B) or Student's t-test (D, F, H, J, K). n.s., non-significant; *P<0.05; **P<0.01; ***P<0.001.
FIG. 6. NLRP1 is activated by phosphorylation of the linker domain after activation of ZAKα and pharmacological inhibition of this signaling pathway promotes erythropoiesis in DBA. (A-D) Number of neutrophils (A-C), and caspase-1 activity (D) in 2 dpf larvae obtained by injection of one-cell stage embryos with human NLRP1 (wild type-WT, S107A and S107D) and treated from 1 to 2 dpf by bath immersion with 1 μM nilotinib (B-D). Representative images of neutrophils (arrows) are also shown in C. (E, F) BMMCs from a DBA patient were incubated for 2 weeks in human methylcellulose complete medium at 37° C. in the presence or absence of the indicated concentrations of nilotinib, and colonies were counted using standard morphological criteria. Each dot represents one individual and the mean±SEM for each group is also shown. P values were calculated by one-way ANOVA and Tukey's multiple range test. n.s., non-significant; *P<0.05; **P<0.01; ***P<0.001; ****P<0.0001.
as §1, §2
Zebrafish (Danio rerio H.) were obtained from the Zebrafish International Resource Center and mated, staged, raised and processed as described in The Zebarfish Book. The lines Tg(mpx:eGFP)^t114, Tg(lyz:DsRED2)^n250, Tg(mfap4:mCherry)^ump6, Tg(gata1a:DsRed)^sd2 Tg(runx1:GAL4)^utn6), Tg(UAS-E1B:NTR-mCherry) and casper (mitfa^w2/w2; mpv17^a9/a9) were previously described. spint1a^hi2217Tg/hi2217Tg was isolated from insertional mutagenesis screens. The experiments performed comply with the Guidelines of the European Union Council (Directive 2010/63/EU) and the Spanish RD 53/2013. The experiments and procedures performed were approved by the Bioethical Committees of the University of Murcia (approval number #669/2020). […]

[3] = K562 cells, 0.1 μM nilotinib 24 h, then 50 μM hemin, western blot

## Cc1cn(-c2cc(NC(=O)c3ccc(C)c(Nc4nccc(-c5cccnc5)n4)c3)cc(C(F)(F)F)c2)cn1 [nilotinib]
[1]; 0.1 μM nilotinib 24 h, with or without 50 μM hemin 24 h (FIG. 1A)
  erythroid differentiation of K562: strongly promoted erythroid differentiation of K562, even in the absence of hemin
[1]; K562 cells, 0.1 μM nilotinib 24 h, then 50 μM hemin 24 h
  haemoglobin accumulation: increase in haemoglobin accumulation
[1]; K562 cells, 0.1 μM nilotinib 24 h, then 50 μM hemin, Phos-tag western blot
  hemin-induced phosphorylation of ZAKα: strongly reversed
[1]; [3]
  hemin-induced degradation of GATA1: strongly reversed
  hemin-induced phosphorylation of P38: strongly reversed
[1]; K562 cells, 0.1 μM nilotinib (FIGS. 1A and 2)
  expression of GATA1: increased expression of GATA1
[1]; K562 cells, 0.1 μM nilotinib plus CX-5461 24 h, then 50 μM hemin 24 h (FIG. 1C)
  accumulation of GATA1 in the presence of CX-5461: able to promote accumulation of GATA1
[1]; K562 cells, basal conditions, upon hemin-induced erythroid differentiation and upon anisomycin
  abundance of ZAK alpha, phosphorylated ZAKα and P38, and NLRP1: Alter the abundance
[2]; larvae 2 dpf, bath immersion 1 to 2 dpf, 1 μM nilotinib
  neutrophilia in the Spint1a-deficient model of neutrophilic inflammation: reduced neutrophilia
[2]; larvae expressing human NLRP1 S107D, 1 μM nilotinib 1 to 2 dpf
  neutrophilia induced by NLRP1 with phosphomimetic S107D mutation: failed to reverse
[2]; larvae expressing human wild type NLRP1, 1 μM nilotinib 1 to 2 dpf
  neutrophilia induced by wild type NLRP1: able to abrogate
[2]; nilotinib (FIGS. 3E and 3F)
  erythropoiesis in zebrafish: Promote erythropoiesis in zebrafish
[2]; wild type larvae 2 dpf, bath immersion 1 to 2 dpf, 1 μM nilotinib, 100 μM anisomycin
  neutrophil number: caused a decrease in neutrophil number
